Values of other authors as cited in US9351995B1, “Compositions and methods of enhancing wound healing” (RED OAX HOLDINGS, LLC, priority 2011, dated 2016).

Columns and labels:
[1] = tested on: fibroblast; conditions: cited from earlier work
[2] = tested on: human surface respiratory epithelium; conditions: cited from earlier work

[Br-].[Br-].[Mg+2] [MgBr2]
fibroblast outgrowth [1]: inhibitory effects on fibroblast outgrowth

COc1cc2c(c(OC)c1OC)-c1ccc(OC)c(=O)cc1[C@@H](NC(C)=O)CC2 [colchicine]
effect on repair of small-size injuries [2]: did not interrupt the repair process

C=C1[C@@H](C)[C@H]2[C@H](Cc3ccccc3)NC(=O)[C@]23OC(=O)/C=C/[C@H](O)CCC[C@@H](C)C/C=C/[C@H]3[C@@H]1O [cytochalasin B]
effect on repair of small-size injuries [2]: prevented cell migration
